Entries after “also recorded” stand apart in the source; their conditions may differ. Like-named read-outs stand apart in the source and are kept apart here.

Results on 5 molecules are retold here after US20210030869A1, “DOSING REGIMEN FOR AN IDO INHIBITOR” (Incyte Corporation, priority 2019, published 2021).

Data set [1] has as its system endometrial cancer. Conditions: cited from earlier work.
Data set [2] in a line: Safety and dose-limiting toxicity in Phase 1b dose-finding study (INCMGA 0012-102). The format is in vivo. Conditions: epacadostat 900 mg BID with ANTIBODY X 500 mg Q4W. From the text: The study is an open-label, nonrandomized, multicenter, Phase 1b study with independent treatment groups.
For dose escalation, a Bayesian optimal interval (BOIN) design with a cohort size of approximately 3 evaluable participants is used. The target rate of dose-limiting toxicities (DLTs) is assumed to be 30% for each combination. At each dose level, a maximum of 9 participants are enrolled.
Participants in the dose-escalation cohorts are observed for 28 days for occurrence of DLTs.
The MTD is defined as the highest dose at which less than approximately one-third of the participants have a DLT. Dose-limiting toxicities occurring during the first 28 days of treatment guide dose escalation and determination of the MTD and RP2D. In addition, participants with late-onset safety events meeting the definition of DLT or those who had intolerable, lower grade persistent toxicity determined to be attributable to either study drug (e.g., Grade 2 peripheral neuropathy) are considered in the selection of each combination RP2D. […]
A DLT is defined as the occurrence of any of the toxicities listed in Table 4 that are possibly, probably, or definitely due to study treatment occurring from the start of treatment up to and including Day 28. All DLTs will be assessed by the investigator using Common Terminology Criteria for Adverse Events: Version 5 (CTCAE v5) criteria. […]

For data set [3], the system named is plasma kynurenine levels (IDO1 inhibition).
Protocol: Clinical laboratory tests are performed, including measurement of kynurenine levels in blood plasma and tumor samples.
Plasma kynurenine levels were measured by an LC-MS/MS method at World Wide Clinical Trials, Inc. Patient samples were obtained pre-dose and at defined times following treatment.
Plasma kynurenine was measured pre-treatment (C1D1) and at the indicated visits.
Setting [4] is: MSI-H or MMR deficient endometrial cancer progressed on prior therapy.
Where [5] appears, read: first line therapy in advanced endometrial cancer.

As for `CC(=O)O[C@H]1C(=O)[C@@]2(C)[C@H]([C@H](OC(=O)c3ccccc3)[C@]3(O)C[C@H](OC(=O)[C@H](O)[C@@H](NC(=O)c4ccccc4)c4ccccc4)C(C)=C1C3(C)C)[C@]1(OC(C)=O)CO[C@@H]1C[C@@H]2O` [Paclitaxel], the “RR (response rate)” value in data set [1] (endometrial cancer patients previously treated with combination of cisplatinum and doxorubicin) was 25%.
As for `CC(=O)O[C@@]12CO[C@@H]1C[C@H](O)[C@@]1(C)C(=O)[C@H](O)C3=C(C)[C@@H](OC(=O)[C@H](O)[C@@H](NC(=O)OC(C)(C)C)c4ccccc4)C[C@@](O)([C@@H](OC(=O)c4ccccc4)[C@H]21)C3(C)C` [docetaxel], the “RR (response rate)” value in data set [1] (endometrial cancer patients treated with paclitaxel in first line therapy) is reported as 8%.
Take `NS(=O)(=O)NCCNc1nonc1C(=NO)Nc1ccc(F)c(Br)c1` [epacadostat, 4-({2-[(aminosulfonyl)amino]ethyl}amino)-N-(3-bromo-4-fluorophenyl)-N′-hydroxy-1,2,5-oxadiazole-3-carboximidamide]: in data set [2], the “maximum tolerated dose (MTD) assessment” value is “exceeded the MTD”. For the same molecule, the “reductions in plasma kynurenine levels compared to Group 1” value in data set [3] (600 mg BID epacadostat (Group 2) vs 100 mg BID (Group 1), with ANTIBODY X 500 mg Q4W, day 8 of treatment, solid tumor patients, 3 per group) was “increased reductions in plasma kynurenine levels”. The “patients showing sustained reductions in plasma kynurenine” value in data set [3] (600 mg BID epacadostat with ANTIBODY X 500 mg Q4W, after 5 weeks of treatment) was 2/3. In addition, the “decreases in plasma kynurenine over visits (FIG. 1)” value in data set [3] (epacadostat 600 mg BID with ANTIBODY X, pre-treatment (C1D1) vs later visits) is on record as “sustained (up to 4 months) decreases in plasma kyn in most patients; also recorded: sustained (up to 4 months) decreases in plasma kynurenine levels in most patients”. Moreover, the normalization of kynurenine entry in data set [3] (epacadostat 600 mg BID with ANTIBODY X, preliminary observations) was “durable normalization of kynurenine”.
With “Pembrolizumab: another anti-PD-1 antibody”, in data set [1] (setting [4]), the “ORR for EC” value was 36% and the duration of response is 4-17 months.
For the molecule carboplatin and paclitaxel, in data set [1] (setting [5]), the ORR entry is listed as “approximately 50%”, the OS is listed as 3 years and the PFS is 13 months.
